Source: ChEMBL document CHEMBL5647688, “Mitogen-activated protein kinase (MEK/ERK) inhibition sensitizes cancer cells to centromere-associated protein E inhibition” (Int J Cancer, 2013)

Assays:
Assay type in all cases: functional
NCI-H23 [1] = test: Synergistic cytotoxicity against human NCI-H23 cells assessed as combination index at ED 50 measured after 72 hrs in presence of MEK inhibitor GSK1120212 by Cell-titer Glo reagent assay
NCI-H1563 = test: Synergistic cytotoxicity against human NCI-H1563 cells assessed as combination index at ED 50 measured after 72 hrs in presence of MEK inhibitor GSK1120212 by Cell-titer Glo reagent assay
NB-1691 = test: Synergistic cytotoxicity against human NB-1691 cells assessed as combination index at ED 75 measured after 72 hrs in presence of concurrent treatment of […] inhibitor CI-1040 by Cell-titer Glo reagent assay
NCI-H2228 [2] = test: Synergistic cytotoxicity against human NCI-H2228 cells assessed as combination index at ED 50 measured after 72 hrs in presence of MEK inhibitor GSK1120212 by Cell-titer Glo reagent assay
SW48 = test: Synergistic cytotoxicity against human SW48 cells assessed as combination index at ED75 measured after 72 hrs in presence of MEK inhibitor GSK1120212 by Cell-titer Glo reagent assay
SW1990 = test: Synergistic cytotoxicity against human SW1990 cells expressing KRAS mutant assessed as combination index at ED75 measured after 72 hrs in presence of MEK inhibitor GSK1120212 by Cell-titer Glo reagent assay
MIA PaCa-2 = test: Synergistic cytotoxicity against human MIA PaCa-2 cells expressing KRAS mutant assessed as combination index at ED 50 measured after 72 hrs in presence of MEK inhibitor GSK1120212 by Cell-titer Glo reagent assay
CAPAN-1 = test: Synergistic cytotoxicity against human CAPAN-1 cells expressing KRAS mutant assessed as combination index at ED75 measured after 72 hrs in presence of MEK inhibitor GSK1120212 by Cell-titer Glo reagent assay
ASPC1 [3] = test: Synergistic cytotoxicity against human ASPC1 cells expressing KRAS mutant assessed as combination index at ED75 measured after 72 hrs in presence of MEK inhibitor GSK1120212 by Cell-titer Glo reagent assay
Calu-6 = test: Synergistic cytotoxicity against human Calu-6 cells expressing KRAS mutant assessed as combination index at ED 50 measured after 72 hrs in presence of MEK inhibitor GSK1120212 by Cell-titer Glo reagent assay
NCI-H1299 [4] = test: Synergistic cytotoxicity against human NCI-H1299 cells expressing NRAS mutant assessed as combination index at ED75 measured after 72 hrs in presence of MEK inhibitor GSK1120212 by Cell-titer Glo reagent assay
SW-620 [5] = test: Synergistic cytotoxicity against human SW620 cells expressing KRAS mutant assessed as combination index at ED75 measured after 72 hrs in presence of MEK inhibitor GSK1120212 by Cell-titer Glo reagent assay
SK-N-FI [6] = test: Synergistic cytotoxicity against human SK-N-FI cells assessed as combination index at ED 50 measured after 72 hrs in presence of temozolomide by Cell-titer Glo reagent assay
NCI-H1299 [7] = test: Synergistic cytotoxicity against human NCI-H1299 cells expressing NRAS mutant assessed as combination index at ED 50 measured after 72 hrs in presence of MEK inhibitor GSK1120212 by Cell-titer Glo reagent assay
A549 [8] = test: Synergistic cytotoxicity against human A549 cells expressing KRAS mutant assessed as combination index at ED75 measured after 72 hrs in presence of MEK inhibitor GSK1120212 by Cell-titer Glo reagent assay
A549 [9] = test: Synergistic cytotoxicity against human A549 cells expressing KRAS mutant assessed as combination index at ED 50 measured after 72 hrs in presence of MEK inhibitor GSK1120212 by Cell-titer Glo reagent assay
SK-N-FI [10] = test: Synergistic cytotoxicity against human SK-N-FI cells assessed as combination index at ED 50 measured after 72 hrs in presence of SN-38 by Cell-titer Glo reagent assay
SW-620 [11] = test: Synergistic cytotoxicity against human SW620 cells expressing KRAS mutant assessed as combination index at ED 50 measured after 72 hrs in presence of MEK inhibitor GSK1120212 by Cell-titer Glo reagent assay
NCI-H2122 = test: Synergistic cytotoxicity against human NCI-H2122 cells expressing KRAS mutant assessed as combination index at ED75 measured after 72 hrs in presence of MEK inhibitor GSK1120212 by Cell-titer Glo reagent assay
SK-N-FI [12] = test: Synergistic cytotoxicity against human SK-N-FI cells assessed as combination index at ED 75 measured after 72 hrs in presence of temozolomide by Cell-titer Glo reagent assay
HuP-T4 = test: Synergistic cytotoxicity against human HuP-T4 cells expressing KRAS mutant assessed as combination index at ED 50 measured after 72 hrs in presence of MEK inhibitor GSK1120212 by Cell-titer Glo reagent assay
ASPC1 [13] = test: Synergistic cytotoxicity against human ASPC1 cells assessed as combination index at ED 50 measured after 72 hrs in presence of MEK inhibitor GSK1120212 by Cell-titer Glo reagent assay
NCI-H2228 [14] = test: Synergistic cytotoxicity against human NCI-H2228 cells assessed as combination index at ED75 measured after 72 hrs in presence of MEK inhibitor GSK1120212 by Cell-titer Glo reagent assay
NCI-H2030 = test: Synergistic cytotoxicity against human NCI-H2030 cells expressing KRAS mutant assessed as combination index at ED75 measured after 72 hrs in presence of MEK inhibitor GSK1120212 by Cell-titer Glo reagent assay
NCI-H1792 = test: Synergistic cytotoxicity against human NCI-H1792 cells expressing KRAS mutant assessed as combination index at ED75 measured after 72 hrs in presence of MEK inhibitor GSK1120212 by Cell-titer Glo reagent assay
YAPC = test: Synergistic cytotoxicity against human […] cells expressing KRAS mutant assessed as combination index at ED75 measured after 72 hrs in presence of MEK inhibitor GSK1120212 by Cell-titer Glo reagent assay
SW900 = test: Synergistic cytotoxicity against human SW900 cells expressing KRAS mutant assessed as combination index at ED75 measured after 72 hrs in presence of MEK inhibitor GSK1120212 by Cell-titer Glo reagent assay
SK-N-FI [15] = test: Synergistic cytotoxicity against human SK-N-FI cells assessed as combination index at ED 50 measured after 72 hrs in presence of sequential treatment of […] inhibitor CI-1040 by Cell-titer Glo reagent assay
NCI-H23 [16] = test: Synergistic cytotoxicity against human NCI-H23 cells assessed as combination index at ED75 measured after 72 hrs in presence of MEK inhibitor GSK1120212 by Cell-titer Glo reagent assay
SK-N-FI [17] = test: Synergistic cytotoxicity against human SK-N-FI cells assessed as combination index at ED 50 measured after 72 hrs in presence of concurrent treatment of […] inhibitor CI-1040 by Cell-titer Glo reagent assay

**Q.** How did the CI (NCI-H23 [1]) turn out when `CC(C)Oc1ccc(C(=O)N[C@H](CNC(=O)CN(C)C)Cc2ccc(-c3cn4cccc([C@H](C)O)c4n3)cc2)cc1Cl` [GSK-923295A] was run?
**A.** Its CI is 0.259.

**Q.** What about the CI (NCI-H1563) of the same molecule?
**A.** Its CI is 0.405.

**Q.** And the CI (NB-1691)?
**A.** The CI was 0.308.

**Q.** What about the CI (NCI-H2228 [2]) of the same molecule?
**A.** Its CI is 0.317.

**Q.** And the CI (SW48)?
**A.** Its CI is 0.091.

**Q.** What about the CI (SW1990) of the same molecule?
**A.** Its CI is 0.103.

**Q.** What about the CI (MIA PaCa-2) of the same molecule?
**A.** Its CI is 0.394.

**Q.** What about the CI (CAPAN-1) of the same molecule?
**A.** The CI was 0.091.

**Q.** What about the CI (ASPC1 [3]) of the same molecule?
**A.** Its CI is 0.323.

**Q.** And the CI (Calu-6)?
**A.** The CI was 0.556.

**Q.** And the CI (NCI-H1299 [4])?
**A.** The CI was 0.511.

**Q.** What about the CI (SW-620 [5]) of the same molecule?
**A.** Its CI is 0.289.

**Q.** And the CI (SK-N-FI [6])?
**A.** Its CI is 0.837.

**Q.** What about the CI (NCI-H1299 [7]) of the same molecule?
**A.** The CI was 0.382.

**Q.** What about the CI (A549 [8]) of the same molecule?
**A.** Its CI is 0.402.

**Q.** And the CI (A549 [9])?
**A.** Its CI is 0.614.

**Q.** And the CI (SK-N-FI [10])?
**A.** Its CI is 1.845.

**Q.** And the CI (SW-620 [11])?
**A.** Its CI is 0.521.

**Q.** And the CI (NCI-H2122)?
**A.** The CI was 0.796.

**Q.** And the CI (SK-N-FI [12])?
**A.** Its CI is 0.94.

**Q.** And the CI (HuP-T4)?
**A.** The CI was 0.452.

**Q.** What about the CI (ASPC1 [13]) of the same molecule?
**A.** The CI was 0.566.

**Q.** And the CI (NCI-H2228 [14])?
**A.** The CI was 0.404.

**Q.** And the CI (NCI-H2030)?
**A.** The CI was 2.329.

**Q.** And the CI (NCI-H1792)?
**A.** Its CI is 0.482.

**Q.** What about the CI (YAPC) of the same molecule?
**A.** The CI was 1.31.

**Q.** What about the CI (SW900) of the same molecule?
**A.** The CI was 0.653.

**Q.** What about the CI (SK-N-FI [15]) of the same molecule?
**A.** Its CI is 0.834.

**Q.** And the CI (NCI-H23 [16])?
**A.** Its CI is 0.234.

**Q.** What about the CI (SK-N-FI [17]) of the same molecule?
**A.** The CI was 0.643.
